Results from patent US20230257374A1, “NOVEL KRAS G12C PROTEIN INHIBITOR, PREPARATION METHOD THEREFOR, AND USE THEREOF” (INNOVENT BIOLOGICS (SUZHOU) CO., LTD., priority 2019, published 2023).
pIC50: −log10 of the molar value. Where two headings read alike, the source gives them in different places.

Assays:
[1] = human, plasma
Procedure: (§6) To examine the stability of the test compounds in plasma, representative compounds were selected for evaluation.
(§7) Preparation of stock solution: a test compound was dissolved in DMSO to prepare a 1 mM stock solution for later use; Propantheline Bromide was dissolved in acetonitrile to prepare a 1 mM stock solution as a positive control for later use.
(§8) To each well was added 2 μL of the stock solution of the test compound and the stock solution of the positive control such that the final concentrations were 5 KM and the concentration of the organic solvent was 0.5%. Each compound was prepared in duplicate, followed by incubation at 37° C. 50 μL of samples were taken from the reaction samples in equal amounts at 0, 30, 60, 120, 180 and 240 minutes, and 450 μL of cold acetonitrile containing an internal standard was added to terminate the reaction. […] 100 μL of the supernatants were transferred to a new plate, dilute with ultra-pure water, and analyzed by LC-MS/MS.
(§9) Data results were calculated according to peak area ratios.
(§10) The percentage of remaining compound for each time point was calculated as follows:
(§11) Remaining percentagemin(%)=peak area ratiosmin/peak area ratiomin×100%
(§12) where peak area ratios represents the peak area ratio of the test compound to the internal standard compound at t min; peak area ratiomin represents the peak area ratio of the test compound to the internal standard compound at 0 min (initial).

Caco-2 cells = assay: in vitro; conditions: Caco-2
Procedure: Drug penetration test: the Transwell culture plate was retrieved from the incubator. […] All samples were prepared in double parallel. The integrity of the cell monolayer membrane after 2 hours of incubation was assessed using leakage of fluorescein; fluorescein stock solution was diluted with HBSS (25 mM HEPES, pH 7.4) to a final concentration of 100 μM. 100 μL of fluorescein solution was added to each well of the upper Transwell plate and 300 μL of HBSS (25 mM HEPES, pH 7.4) was added to each well of the lower receiving plate; after incubation at 37° C. for 30 min, 80 μL of the solution was pipetted from the upper and lower layers of each well to a new 96-well plate.
The apparent permeability coefficients (Papp, unit: cm/s) of the compounds in Caco-2 cells were calculated from the specific concentrations at the acceptor and donor ends, and the specific calculation formula is as follows: […]
where VA represents the volume of the acceptor end solution (0.3 mL for Ap→Bl, 0.1 mL for Bl→Ap); Area represents the area of the Transwell-96 well plate (0.143 cm^2); time represents the incubation time (unit: s); [drug]acceptor represents the drug concentration (ratio of peak area to internal standard area) at the acceptor end; [drug]initial, donor represents the drug concentration at the donor end (ratio of peak area to internal standard area).
The efflux ratio was calculated as follows: […]
where Papp (B-A) represents the apparent permeability coefficient from base end to top end; Papp (A-B) represents the apparent permeability coefficient from top end to base end.

in vitro = conditions: microsomes
Procedure: To examine the in vitro metabolic stability of the test compounds in liver microsomes of different species, representative compounds were selected, and their stability was evaluated by measuring the concentration of the test compounds in the incubation system using LC/MS/MS and calculating their intrinsic clearance in the microsome system.
The method is specifically as follows: each compound was first dissolved in DMSO to prepare a 200 μM working solution and added to the system solution at the time of testing to form a solution with a final concentration of 1 μM.
The microsomes were stored in a −80° C. freezer.
Preparation of incubation system: an incubation system was prepared as described in the table below.
25 μL, of NADPH or phosphate buffered saline was transferred to the incubation system described above, and 2 μL, of 200 μM of the test compound or verapamil was added. The sample with NADPH added was prepared in duplicate; the NADPH negative sample was prepared in single parallel. 30 μL, of suspension was taken at 0.5, 5, 15, 30 and 60 minutes. The reaction system was terminated by adding 180 μL, of acetonitrile containing an internal standard and vortexed for 10 min. […] 100 μL, of the supernatant was transferred to a feeding plate, and 100 μL, of purified water was added. The mixture was well mixed for UPLC-MS/MS analysis.
The results based on the data were obtained by calculation according to the peak area ratio, and the peak area was detected through an extracted ion chromatogram.
The slope value (k) was determined by linear fitting of the natural logarithm of drug elimination percentage over time.

[2] = tested on: NCI-H358 tumor (K-RAS G12C mutation); format: in vivo, BALB/c nude mice; conditions: for Tumor regression: animals with regression / group of 8
Procedure: The cells were digested with trypsin-EDTA twice a week for passaging as per conventional practice. When the cell saturation reached 80%-90% and a required amount was achieved, the cells were collected and counted for later use. […] 5% DMSO/5% Solutol/90% water was used as a blank control. 3) Tumor inoculation and drug administration: BALB/c nude mice, female, 6-8 weeks old, weighing 18-20 g. The experiment started after 3-7 days of adaptive feeding. 0.1 mL of NCI-H358 cells (5×10^6 cells) were inoculated subcutaneously on the right back of each mouse. The mice were grouped for administration when the average tumor volume reached approximately 150 mm^3. The animals were weighed before administration and the tumor volume was measured. Grouping was randomly performed according to the tumor volume.
Animals were monitored daily for health and death, and routine examinations include observation of the effect of tumor growth and drug treatment on the daily performance of the animals, such as behavioral activities, food and water intake, weight changes (measured once every other day), appearance, or other abnormal conditions. Animal mortality and side effects within each group were recorded based on the number of animals in the group.
Tumor diameters were measured 2-3 times weekly using a vernier caliper.
The tumor volume was calculated as follows: […]
where a and b represent the long and short diameters of the tumor, respectively.
The anti-tumor therapeutic effect of the compound was evaluated by tumor growth inhibition rate TGI (%) or relative tumor proliferation rate T/C (%).
TGI (%) was calculated as follows: […]
T/C (%) was calculated as follows: […]
where TRTV represents the relative tumor volume of the treatment group; CRTV represents the relative tumor volume of the solvent control group.
Based on the results of tumor measurement, the relative tumor volume (RTV) was calculated as follows: […]
where V0 represents the average tumor volume measured at the time of grouping and administration (i.e., d0), Vt represents the average tumor volume in a certain measurement, and TRTV and CRTV take the data on the same day.
After the completion of the experiment, tumors were weighed, and the percentage of Tweight/Cweight was calculated, where Tweight and Cweight represent the tumor weights of the treatment group and the solvent control group, respectively.
Data calculation and analysis: T test was employed for comparison between two groups. One-way ANOVA was employed for comparison between three or more groups. If there is a significant difference in F-values, multiple comparisons should be made after ANOVA analysis. All data analyses were performed with SPSS 17.0. p<0.05 was defined as a significant difference.

KRAS G12C protein = target: T1, KRAS G12C protein (Homo sapiens, UniProt P01116, G12C); assay: ERK protein phosphorylation assay (p-ERK) in H358 cells; format: cell-based; parameters: scale not given here; conditions: H358 cells expressing KRAS G12C protein, 3 h incubation with compound; read-out: IC50, inhibiting phosphorylation of KRAS G12C protein-mediated downstream signaling (p-ERK)
T1 construct: H358 cells (ATCC, CRL-5807) expressing KRAS G12C protein; host or cells: H358 (NCI-H358) cells
Method in brief: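 After paraformaldehyde fixation and methanol permeabilization, phospho-ERK detected by immunofluorescence read on an Odyssey CLx imager.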

[3] = tested on: H358 cell line (K-RAS G12C); assay: cells; format: cell-based, human
Procedure: (§1) a) On day 1, seed cells were placed in T75 a flask. b) On day 3, the medium was taken out and washed once with DPBS. c) Cells were trypsinized with 2 mL TrypLE™ Express enzyme at room temperature (RT) or 37° C. until cells detached. d) 5 mL of fresh medium was added to suspend the cells, and then the suspension was centrifuged at 1000 rpm and room temperature for 5 min. e) The supernatant was discarded, and the cells were resuspended in 5 mL of fresh medium and counted using Countess™ H. f) The cells were seeded back into the T75 flask for further culture or placed into an assay plate for 3D cell proliferation assay.
(§2) The cells were seeded at a density of 600 cells/well in a 384-well plate with 40 μL of medium per well and a final DMSO concentration of 0.5%. b) On day 4, a 3D CTG reagent was added to each well, followed by shaking at room temperature for 1 h. c) The signals were recorded using Envision.
(§3) a) Robustness was examined using 0.5% DMSO and data of blank control medium: H=mean (DMSO); L=mean (medium); SD (H)=STDEV (DMSO); SD (L)=STDEV (medium);
(§4) Y=peak valley value+(peak top value−peak valley value)/(1+10^((Log IC50−X)×HillSlope));
(§5) X: logarithm of compound concentration; Y: percent inhibition (% inhibition); Peak top and peak valley values: the plateau period units are the same as Y; log IC50: the same logarithmic unit as X; HillSlope: slope coefficient or Hill slope.

[4] = tested on: PC-9 cell line (K-RAS wild type); assay: cells; format: cell-based; conditions: Homo sapiens, PC-9, 96 h; 3D culture, CellTiter-Glo 3D, read on day 4
Procedure: as §1, §2, §3, §4, §5

[5] = tested on: H1373 cell line (K-RAS G12C); assay: cells; format: cell-based
Procedure: as §1, §2, §3, §4, §5

[6] = tested on: MIA PaCa-2 cell line (K-RAS G12C); assay: cells; format: cell-based
Procedure: as §1, §2, §3, §4, §5

[7] = Stability test in human plasma
Procedure: as §6, §7, §8, §9, §10, §11, §12

T1 sequence (P01116 1-188 isoform P01116-2 G12C): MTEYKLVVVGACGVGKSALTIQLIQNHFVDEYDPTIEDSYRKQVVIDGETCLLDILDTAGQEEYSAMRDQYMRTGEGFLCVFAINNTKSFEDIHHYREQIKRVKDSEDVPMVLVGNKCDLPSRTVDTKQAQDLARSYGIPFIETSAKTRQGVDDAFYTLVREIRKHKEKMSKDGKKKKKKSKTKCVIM

In the case of `C=CC(=O)N1CCN(c2nc(OC[C@@H]3CCCN3C)nc3c2CCN(c2cccc4cccc(C)c24)C3)C[C@@H]1CC#N` [MRTX-1257, reference compound], the “t1/2” value [1] was 1.608 h, the “Remaining percentage (%) 0 min” value ([1]; 0 h) was 100.00% and the “Remaining percentage (%) 30 min” value ([1]; 0.5 h) was 88.91%. For the same compound, the “Remaining percentage (%) 60 min” value ([1]; 1 h) was 82.31%, the “Remaining percentage (%) 120 min” value ([1]; 2 h) was 55.64% and the “Remaining percentage (%) 180 min” value ([1]; 3 h) was 32.06%. The “Remaining percentage (%) 240 min” value ([1]; 4 h) was 18.12%, the Efflux ratio (Caco-2 cells) was 16.31 and the “CLint (μL/min/mg protein)” value (in vitro; human) was 54.30 μL/min/mg protein. For the same compound, the “t1/2” value (in vitro; human) was 0.4263 h, the “CLint (μL/min/mg protein)” value (in vitro; mouse) was 74.97 μL/min/mg protein and the “t1/2” value (in vitro; mouse) was 0.3082 h.
With `[2H]C([2H])([2H])c1cccc2cccc(N3CCc4c(nc(OC[C@@H]5CCCN5C([2H])([2H])[2H])nc4N4CCN(C(=O)C=C)[C@@H](CC#N)C4)C3)c12` [Compound 17, 2-((S)-1-acryloyl-4-(7-(8-(methyl-d3)naphthalen-1-yl)-2-(((S)-1-(methyl-d3)pyrrolidin-2-yl)methoxy)-5,6,7,8-tetrahydropyrido[3,4-d]pyrimidin-4-yl)piperazin-2-yl)acetonitrile] the “Day 0 Tumor volume (mm^3) Vaverage ± SEM” value ([2]; Day 0 (at grouping, before administration), 15 mg/kg PO QD group) was 151 ± 10 mm^3, the “Day 21 Tumor volume (mm^3) Vaverage ± SEM” value ([2]; Day 21, 15 mg/kg PO QD) was 90 ± 12 mm^3 and the “Tumor inhibition rate TGI (%)” value ([2]; Day 21, 15 mg/kg PO QD) was 110.7%. For the same compound, the Tumor regression ([2]; Day 21, 15 mg/kg PO QD) was 8/8, the Tumor regression ([2]; Day 21, 15 mg/kg PO QD, listed as compound 17) was “the tumors in all of the animals regressed” and the “Day 0 Body weight (g) Waverage ± SEM” value ([2]; mouse, in vivo, po, 15 mg/kg) was 22.6 ± 0.7 g. The pIC50 (KRAS G12C protein) was greater than 6.00, the pIC50 ([3]; Homo sapiens, NCI-H358, 96 h, 3D culture, CellTiter-Glo 3D, read on day 4, read-out: H358 (K-RAS G12C) IC50) was 9.47 and the “Selectivity (fold number of mutant vs. wild type)” value ([3]; PC-9 IC50 vs. H358 IC50) was 13794 fold. For the same compound, the pIC50 [4] was 5.33, the pIC50 ([5]; Homo sapiens, NCI-H1373, 96 h, 3D culture, CellTiter-Glo 3D, read on day 4, read-out: H1373 (K-RAS G12C) IC50) was 9.49 and the “Selectivity (fold number of mutant vs. wild type)” value ([5]; PC-9 IC50 vs. H1373 IC50) was 14656 fold. For the same compound, the pIC50 ([6]; Homo sapiens, MIA PaCa-2, 96 h, 3D culture, CellTiter-Glo 3D, read on day 4, read-out: MIA PaCa-2 (K-RAS G12C) IC50) was 9.36, the “Selectivity (fold number of mutant vs. wild type)” value ([6]; PC-9 IC50 vs. MIA PaCa-2 IC50) was 10659 fold and the “Remaining percentage (%) 0 min” value ([7]; human plasma, 37° C., 0 min) was 100.00%. The “Remaining percentage (%) 30 min” value ([7]; human plasma, 37° C., 30 min) was 97.00%, the “Remaining percentage (%) 60 min” value ([7]; human plasma, 37° C., 60 min) was 92.97% and the “Remaining percentage (%) 120 min” value ([7]; human plasma, 37° C., 120 min) was 78.91%. For the same compound, the “Remaining percentage (%) 180 min” value ([7]; human plasma, 37° C., 180 min) was 59.98%, the “Remaining percentage (%) 240 min” value ([7]; human plasma, 37° C., 240 min) was 47.82% and the half-life at 5 μM ([7]; human, plasma) was 3.63 h.
